The target of the assay is Polθ protein (amino acids 2-2590) (Homo sapiens, UniProt O75417). Description: Polθ full length enzyme potency assay (PicoGreen). Conditions: full length N-His, C-term FLAG tagged Polθ, PicoGreen fluorescence, 12 point concentration response.

Read-outs that look alike come from different tables or passages of the source.

As usually defined, the IC50 is the concentration that inhibits the measured activity by half.

Sequence of Polθ protein (amino acids 2-2590) (O75417 2-2590): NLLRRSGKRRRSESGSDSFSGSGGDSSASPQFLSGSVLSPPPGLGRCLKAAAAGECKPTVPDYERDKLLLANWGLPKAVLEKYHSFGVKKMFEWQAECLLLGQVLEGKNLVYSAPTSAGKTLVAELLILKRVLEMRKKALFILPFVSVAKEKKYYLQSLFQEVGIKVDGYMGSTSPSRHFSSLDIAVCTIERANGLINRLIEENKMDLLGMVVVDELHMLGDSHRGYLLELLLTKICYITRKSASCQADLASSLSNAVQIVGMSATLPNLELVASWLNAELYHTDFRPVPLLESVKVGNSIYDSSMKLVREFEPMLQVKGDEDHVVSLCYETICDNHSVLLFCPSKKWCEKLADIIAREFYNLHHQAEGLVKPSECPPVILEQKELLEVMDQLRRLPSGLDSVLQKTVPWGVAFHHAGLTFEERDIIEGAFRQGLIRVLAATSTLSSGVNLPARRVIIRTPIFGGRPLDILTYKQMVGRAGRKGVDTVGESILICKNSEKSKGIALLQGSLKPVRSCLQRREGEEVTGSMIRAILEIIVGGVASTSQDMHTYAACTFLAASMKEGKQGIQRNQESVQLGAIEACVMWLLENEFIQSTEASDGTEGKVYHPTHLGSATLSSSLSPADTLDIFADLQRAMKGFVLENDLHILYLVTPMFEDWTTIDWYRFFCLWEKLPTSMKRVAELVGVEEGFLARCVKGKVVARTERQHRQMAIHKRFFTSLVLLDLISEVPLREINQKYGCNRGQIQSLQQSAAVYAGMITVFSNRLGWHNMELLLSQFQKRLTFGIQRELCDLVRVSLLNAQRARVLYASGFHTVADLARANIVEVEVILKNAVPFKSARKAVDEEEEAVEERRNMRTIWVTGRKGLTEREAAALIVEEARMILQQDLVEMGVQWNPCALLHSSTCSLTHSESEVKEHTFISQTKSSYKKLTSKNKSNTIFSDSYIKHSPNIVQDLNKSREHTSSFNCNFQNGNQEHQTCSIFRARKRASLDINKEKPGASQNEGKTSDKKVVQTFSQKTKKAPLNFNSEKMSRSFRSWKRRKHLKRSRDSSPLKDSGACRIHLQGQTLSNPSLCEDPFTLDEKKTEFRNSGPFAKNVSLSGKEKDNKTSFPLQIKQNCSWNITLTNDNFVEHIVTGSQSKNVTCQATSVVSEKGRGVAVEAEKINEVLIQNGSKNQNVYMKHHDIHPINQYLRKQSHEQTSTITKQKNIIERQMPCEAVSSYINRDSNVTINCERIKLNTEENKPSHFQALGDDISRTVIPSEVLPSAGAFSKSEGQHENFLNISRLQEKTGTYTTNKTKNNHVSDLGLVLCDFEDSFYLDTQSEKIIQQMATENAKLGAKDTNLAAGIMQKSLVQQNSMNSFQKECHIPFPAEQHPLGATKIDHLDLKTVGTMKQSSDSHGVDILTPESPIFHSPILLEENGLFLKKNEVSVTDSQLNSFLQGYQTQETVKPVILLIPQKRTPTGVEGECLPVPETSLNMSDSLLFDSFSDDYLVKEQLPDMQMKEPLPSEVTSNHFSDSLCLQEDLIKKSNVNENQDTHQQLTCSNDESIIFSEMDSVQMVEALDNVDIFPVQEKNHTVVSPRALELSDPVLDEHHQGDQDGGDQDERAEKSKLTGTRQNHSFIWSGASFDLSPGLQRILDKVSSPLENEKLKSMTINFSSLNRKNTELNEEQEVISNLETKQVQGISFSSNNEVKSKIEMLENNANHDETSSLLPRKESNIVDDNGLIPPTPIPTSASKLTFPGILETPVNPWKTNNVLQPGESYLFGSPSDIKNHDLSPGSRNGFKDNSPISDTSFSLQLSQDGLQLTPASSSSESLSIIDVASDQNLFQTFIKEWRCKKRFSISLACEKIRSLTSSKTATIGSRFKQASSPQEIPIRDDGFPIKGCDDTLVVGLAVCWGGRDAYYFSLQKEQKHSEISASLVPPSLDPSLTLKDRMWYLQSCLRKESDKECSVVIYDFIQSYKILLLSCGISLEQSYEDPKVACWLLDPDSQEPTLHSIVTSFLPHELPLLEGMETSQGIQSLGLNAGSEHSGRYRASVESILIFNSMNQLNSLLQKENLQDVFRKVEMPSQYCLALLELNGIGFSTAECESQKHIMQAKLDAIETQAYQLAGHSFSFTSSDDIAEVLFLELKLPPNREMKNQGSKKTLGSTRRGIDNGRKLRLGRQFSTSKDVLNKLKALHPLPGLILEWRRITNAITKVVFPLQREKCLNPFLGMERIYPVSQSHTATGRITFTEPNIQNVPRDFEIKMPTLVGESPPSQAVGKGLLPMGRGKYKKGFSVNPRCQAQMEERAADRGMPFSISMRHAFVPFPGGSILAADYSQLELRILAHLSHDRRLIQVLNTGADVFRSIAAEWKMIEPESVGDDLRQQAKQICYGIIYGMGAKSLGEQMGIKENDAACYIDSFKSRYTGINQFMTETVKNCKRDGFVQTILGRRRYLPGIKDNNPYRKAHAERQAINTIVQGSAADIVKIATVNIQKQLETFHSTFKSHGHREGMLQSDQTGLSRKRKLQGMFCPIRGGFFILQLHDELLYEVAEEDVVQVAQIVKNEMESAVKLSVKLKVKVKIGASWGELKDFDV

Regarding `COc1cc(N(C)C(=O)[C@@H]2COC(=O)N2c2cc(C(F)(F)F)cc(C)n2)ccc1F` [Example 90, (S)-N-(4-Fluoro-3-methoxyphenyl)-N-methyl-3-(6-methyl-4-(trifluoromethyl)pyridin-2-yl)-2-oxooxazolidine-4-carboxamide], half-maximal inhibition (Polθ IC50 (nM)) (IC50) was put at 226 nM.
`C=C(C)c1cc(C)nc(N2C(=O)OC[C@H]2C(=O)N(C)c2ccc(F)c(Cl)c2)c1` [Example 117, (S)—N-(3-Chloro-4-fluorophenyl)-N-methyl-3-(6-methyl-4-(prop-1-en-2-yl)pyridin-2-yl)-2-oxooxazolidine-4-carboxamide] showed an IC50 (Polθ IC50 (nM)) of 61 nM.
Under “Polθ IC50 (nM)”, `Cc1cc(C(F)(F)F)cc(N2C(=O)[C@@H](O)[C@@H](O)[C@H]2C(=O)N(C)c2ccc(F)c(C)n2)n1` [Example 170, (2S,3S,4S)—N-(5-Fluoro-6-methylpyridin-2-yl)-3,4-dihydroxy-N-methyl-1-(6-methyl-4-(trifluoromethyl)pyridin-2-yl)-5-oxopyrrolidine-2-carboxamide] yielded an IC50 of 193 nM.
Consider `Cc1cc(C(F)(F)F)cc(N2C(=O)C[C@@H](O)[C@H]2C(=O)N(C)c2ccc(F)c(Cl)c2)n1` [Example 80, (2S,3R)—N-(3-Chloro-4-fluorophenyl)-3-hydroxy-N-methyl-1-(6-methyl-4-(trifluoromethyl)-pyridin-2-yl)-5-oxopyrrolidine-2-carboxamide], for which inhibition (Polθ IC50 (nM)) was half-maximal at 6 nM (IC50).
As for `Cc1cc(C(F)(F)F)cc(N2C(=O)OC[C@H]2C(=O)N(C)c2ccc3c(c2)COC3)n1` [Example 102, (S)-N-(1,3-Dihydroisobenzofuran-5-yl)-N-methyl-3-(6-methyl-4-(trifluoromethyl)pyridin-2-yl)-2-oxooxazolidine-4-carboxamide], under “Polθ IC50 (nM)”, the IC50 turned out to be 86 nM.
Regarding `Cc1cc(C(F)(F)F)cc(N2C(=O)N(CC3CN(C)C(=O)O3)C[C@H]2C(=O)N(C)c2ccc(F)c(Cl)c2F)n1` (single isomer, unassigned; isomer 1) [Example 229], under “read-out: Polθ IC50”, the IC50 is 15 nM.
For the setting “Polθ IC50 (nM)”, `COc1cc(N(C)C(=O)[C@@H]2COC(=O)N2c2cc(C(F)(F)F)cc(C)n2)ccc1C` [Example 92, (S)-N-(3-Methoxy-4-methylphenyl)-N-methyl-3-(6-methyl-4-(trifluoromethyl)pyridin-2-yl)-2-oxooxazolidine-4-carboxamide] showed an IC50 of 18 nM.
On the same count and under the same terms, the same measure for `CCN(C(=O)[C@@H]1[C@H](O)[C@H](O)CN1c1nc(C)cc(C(F)(F)F)c1C#N)c1ccc(F)c(Cl)c1` [Example 57, (2S,3S,4R)-N-(3-Chloro-4-fluoro-phenyl)-1-(3-cyano-6-methyl-4-(trifluoromethyl)pyridin-2-yl)-N-ethyl-3,4-dihydroxypyrrolidine-2-carboxamide]: 10 nM; for `Cc1cc(C(F)(F)F)cc(N2C(=O)N(CCC(=O)N(C)C)C[C@H]2C(=O)N(C)c2ccc(F)c(Cl)c2)n1` [Example 190, (S)—N-(3-Chloro-4-fluorophenyl)-1-(3-(dimethylamino)-3-oxopropyl)-N-methyl-3-(6-methyl-4-(trifluoromethyl)pyridin-2-yl)-2-oxoimidazolidine-4-carboxamide]: 13 nM.
Under “Polθ IC50 (nM)”, `[2H]C([2H])([2H])N(C(=O)[C@@H]1[C@H](O)[C@H](O)C(=O)N1c1cc(C(F)(F)F)cc(C)n1)c1ccc(F)c(Cl)c1F` [Example 162, (2S,3S,4S)—N-(3-Chloro-2,4-difluorophenyl)-3,4-dihydroxy-N-(methyl-d3)-1-(6-methyl-4-(trifluoromethyl)pyridin-2-yl)-5-oxopyrrolidine-2-carboxamide] displayed an IC50 of 3 nM.
`Cc1cccc(N(C)C(=O)[C@@H]2[C@H](O)[C@H](O)CN2c2nc(C)cc(C)c2C#N)c1` [Example 55, (2S,3S,4R)-1-(3-Cyano-4,6-dimethyl-pyridin-2-yl)-3,4-dihydroxy-N-methyl-N-(m-tolyl)-pyrrolidine-2-carboxamide] came in with an IC50 (Polθ IC50 (nM)) of 118 nM.
As for `Cc1cccc(N(C)C(=O)[C@@H]2C[C@H](O)CN2c2cc(C(F)(F)F)cc(C)n2)c1` [Example 27, (2S,4S)-4-Hydroxy-N-methyl-1-(6-methyl-4-(trifluoromethyl)pyridin-2-yl)-N-(m-tolyl)pyrrolidine-2-carboxamide], the IC50 (Polθ IC50 (nM)) is 12 nM.
